Assays:
[1] = biological target: [35S]-TBPS binding, rat brain cortical membranes (GABA receptor complex); test: Steroid inhibition of [35S]-TBPS binding; conditions: 3 nM [35S]-TBPS, 5 μM GABA
Method: Steroid Inhibition of TBPS Binding
[35S]-t-Butylbicyclophosphorothionate (TBPS) binding assays using rat brain cortical membranes in the presence of 5 μM GABA has been described (Gee et al, J. Pharmacol. Exp. Ther. 1987, 241, 346-353; Hawkinson et al, Mol. Pharmacol. 1994, 46, 977-985; Lewin, A. H et al., Mol. Pharmacol. 1989, 35, 189-194).
Briefly, cortices are rapidly removed following decapitation of carbon dioxide-anesthetized Sprague-Dawley rats (200-250 g). The cortices are homogenized in 10 volumes of ice-cold 0.32 M sucrose using a glass/teflon homogenizer and centrifuged at 1500×g for 10 min at 4° C. The resultant supernatants are centrifuged at 10,000×g for 20 min at 4° C. to obtain the P2 pellets. The P2 pellets are resuspended in 200 mM NaCl/50 mM Na-K phosphate pH 7.4 buffer and centrifuged at 10,000×g for 10 min at 4° C. This washing procedure is repeated twice and the pellets are resuspended in 10 volumes of buffer. Aliquots (100 μL) of the membrane suspensions are incubated with 3 nM [^35S]-TBPS and 5 μL aliquots of test drug dissolved in dimethyl sulfoxide (DMSO) (final 0.5%) in the presence of 5 μM GABA. The incubation is brought to a final volume of 1.0 mL with buffer. Nonspecific binding is determined in the presence of 2 μM unlabeled TBPS and ranged from 15 to 25%. Following a 90 min incubation at room temp, the assays are terminated by filtration through glass fiber filters (Schleicher and Schuell No. 32) using a cell harvester (Brandel) and rinsed three times with ice-cold buffer. Filter bound radioactivity is measured by liquid scintillation spectrometry. Non-linear curve fitting of the overall data for each drug averaged for each concentration is done using Prism (GraphPad). […] The concentration of test compound producing 50% inhibition (IC50) of specific binding and the maximal extent of inhibition (Imax) are determined for the individual experiments with the same model used for the overall data and then the means±SEM.s of the individual experiments are calculated.
Various compounds are or can be screened to determine their potential as modulators of [^35S]-TBPS binding in vitro. These assays are or can be performed in accordance with the above discussed procedures.

[2] = biological target: T1, GABAA receptor α1β2γ2 (Homo sapiens, UniProt P14867+P47870); test: Patch clamp electrophysiology, Qpatch in Ltk cells; type: cell-based; conditions: 10 μM test article, GABA EC20 2 μM, read-out: GABA (α1β2γ2) Qpatch in Ltk, % efficacy at 10 μM
T1 construct: expressed in transfected cells
T1 sequence (P14867 28-456): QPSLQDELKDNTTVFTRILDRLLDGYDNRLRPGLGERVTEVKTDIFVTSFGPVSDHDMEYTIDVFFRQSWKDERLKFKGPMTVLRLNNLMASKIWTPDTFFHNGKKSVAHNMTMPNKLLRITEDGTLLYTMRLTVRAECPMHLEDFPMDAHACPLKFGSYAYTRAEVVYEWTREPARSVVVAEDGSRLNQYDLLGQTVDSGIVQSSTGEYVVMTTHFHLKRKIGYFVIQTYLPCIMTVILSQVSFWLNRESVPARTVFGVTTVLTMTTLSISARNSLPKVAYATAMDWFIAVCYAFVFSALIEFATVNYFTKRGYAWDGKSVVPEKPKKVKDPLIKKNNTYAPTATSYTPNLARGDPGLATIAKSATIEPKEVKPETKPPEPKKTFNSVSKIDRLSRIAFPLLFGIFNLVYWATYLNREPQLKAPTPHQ
T1 sequence (P47870 25-512 limits assumed): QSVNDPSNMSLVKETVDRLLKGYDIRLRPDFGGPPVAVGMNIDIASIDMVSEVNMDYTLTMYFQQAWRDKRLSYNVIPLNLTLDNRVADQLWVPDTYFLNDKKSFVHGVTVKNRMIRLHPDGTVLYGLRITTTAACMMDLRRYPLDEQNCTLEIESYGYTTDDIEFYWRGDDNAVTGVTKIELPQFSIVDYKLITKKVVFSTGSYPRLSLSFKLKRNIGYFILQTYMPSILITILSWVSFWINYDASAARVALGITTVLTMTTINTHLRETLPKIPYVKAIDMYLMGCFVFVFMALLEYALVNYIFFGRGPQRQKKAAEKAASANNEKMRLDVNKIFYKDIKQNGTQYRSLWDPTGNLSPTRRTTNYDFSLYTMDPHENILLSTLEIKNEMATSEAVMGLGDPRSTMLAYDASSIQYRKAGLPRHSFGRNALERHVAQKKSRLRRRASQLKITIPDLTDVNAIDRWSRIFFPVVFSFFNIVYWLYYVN
T1 sequence (P18507 40-475 partner): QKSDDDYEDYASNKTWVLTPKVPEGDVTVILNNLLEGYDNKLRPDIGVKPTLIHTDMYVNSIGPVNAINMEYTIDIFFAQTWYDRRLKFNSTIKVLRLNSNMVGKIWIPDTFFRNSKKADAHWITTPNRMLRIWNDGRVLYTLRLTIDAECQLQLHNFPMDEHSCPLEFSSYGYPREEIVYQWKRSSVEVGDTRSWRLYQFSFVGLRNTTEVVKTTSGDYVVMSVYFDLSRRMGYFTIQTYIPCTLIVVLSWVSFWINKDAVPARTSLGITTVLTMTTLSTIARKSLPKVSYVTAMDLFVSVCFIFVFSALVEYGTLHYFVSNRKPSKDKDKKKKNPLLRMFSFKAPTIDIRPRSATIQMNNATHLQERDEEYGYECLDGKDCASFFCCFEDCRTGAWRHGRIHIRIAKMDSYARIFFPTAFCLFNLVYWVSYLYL
Method: Patch Clamp Electrophysiology of Recombinant α1β2γ2 and α4β3δ GABAA Receptors
Cellular electrophysiology is used to measure the pharmacological properties of our GABAA receptor modulators in heterologous cell systems. Each compound is tested for its ability to affect GABA mediated currents at a submaximal agonist dose (GABA EC20=2 μM). LTK cells are stably transfected with the α1β2γ2 subunits of the GABA receptor and CHO cells are transiently transfected with the α4β3δ subunits via the Lipofecatamine method. Cells were passaged at a confluence of about 50-80% and then seeded onto 35 mm sterile culture dishes containing 2 ml culture complete medium without antibiotics or antimycotics. Confluent clusters of cells are electrically coupled (Pritchett et al., Science, 1988, 242, 1306-1308.). Because responses in distant cells are not adequately voltage clamped and because of uncertainties about the extent of coupling (Verdoorn et al., Neuron 1990, 4, 919-928.), cells were cultivated at a density that enables the recording of single cells (without visible connections to other cells).
Whole cell currents were measured with HEKA EPC-10 amplifiers using PatchMaster software or by using the high throughput QPatch platform (Sophion). Bath solution for all experiments contained (in mM): NaCl 137 mM, KCl 4 mM, CaCl2 1.8 mM, MgCl2 1 mM, HEPES 10 mM, D-Glucose 10 mM, pH (NaOH) 7.4. In some cases 0.005% cremophor was also added. Intracellular (pipette) solution contained: KCl 130 mM, MgCl2 1 mM, Mg-ATP 5 mM, HEPES 10 mM, EGTA 5 mM, pH 7.2. During experiments, cells and solutions were maintained at room temperature (19° C.-30° C.). For manual patch clamp recordings, cell culture dishes were placed on the dish holder of the microscope and continuously perfused (1 ml/min) with bath solution. After formation of a Gigaohm seal between the patch electrodes and the cell (pipette resistance range: 2.5 MΩ-6.0 MΩ; seal resistance range: >1 GΩ) the cell membrane across the pipette tip was ruptured to assure electrical access to the cell interior (whole-cell patch-configuration). For experiments using the QPatch system, cells were transferred as suspension to the QPatch system in the bath solution and automated whole cell recordings were performed.
Cells were voltage clamped at a holding potential of −80 mV. For the analysis of test articles, GABA receptors were stimulated by 2 μM GABA after sequential pre-incubation of increasing concentrations of the test article. Pre-incubation duration was 30 s and the duration of the GABA stimulus was 2 s. Test articles were dissolved in DMSO to form stock solutions (10 mM). Test articles were diluted to 0.01, 0.1, 1, and 10 μM in bath solution. All concentrations of test articles were tested on each cell. The relative percentage potentiation was defined as the peak amplitude in response to GABA EC20 in the presence of the test article divided by the peak amplitude in response to GABA EC20 alone, multiplied by 100.

`CCOC(=O)c1cnn(CC(=O)[C@H]2CC[C@H]3[C@@H]4CC[C@@H]5C[C@](C)(O)CC[C@@H]5[C@H]4CC[C@]23C)c1` [SA-3] showed an IC50 [1] of under 10 nM and an Emax at 10 µM [2] of over 500%.

Work on `Cc1cc(C)n(CC(=O)[C@H]2CC[C@H]3[C@@H]4CC[C@@H]5C[C@](C)(O)CC[C@@H]5[C@H]4CC[C@]23C)n1` [SA-12] yielded an IC50 [1] of 10 to 50 nM and an Emax at 10 µM [2] of 100 to 500%.

With `C[C@@]1(O)CC[C@H]2[C@H](CC[C@@H]3[C@@H]2CC[C@]2(C)[C@@H](C(=O)Cn4cc(C(F)(F)F)cn4)CC[C@@H]32)C1` [SA-14] the Emax at 10 µM [2] was 100 to 500%.

With `Cc1cn(CC(=O)[C@H]2CC[C@H]3[C@@H]4CC[C@@H]5C[C@](C)(O)CC[C@@H]5[C@H]4CC[C@]23C)nc1C` [SA-15] the Emax at 10 µM [2] was 100 to 500%.

Molecule `CCc1cnn(CC(=O)[C@H]2CC[C@H]3[C@@H]4CC[C@@H]5C[C@](C)(O)CC[C@@H]5[C@H]4CC[C@]23C)c1` [SA-16] has an Emax at 10 µM [2] of over 500%.

For `CSc1cnn(CC(=O)[C@H]2CC[C@H]3[C@@H]4CC[C@@H]5C[C@](C)(O)CC[C@@H]5[C@H]4CC[C@]23C)c1` [SA-18], the Emax at 10 µM [2] was over 500%.

`C[S+]([O-])c1cnn(CC(=O)[C@H]2CC[C@H]3[C@@H]4CC[C@@H]5C[C@](C)(O)CC[C@@H]5[C@H]4CC[C@]23C)c1` (stereo partly drawn) [SA-20] showed an Emax at 10 µM [2] of 100 to 500%.

Work on `C[C@@]1(O)CC[C@H]2[C@H](CC[C@@H]3[C@@H]2CC[C@]2(C)[C@@H](C(=O)Cn4cc(F)cn4)CC[C@@H]32)C1` [SA-21] yielded an Emax at 10 µM [2] of over 500%.

`COC[C@@]1(O)CC[C@H]2[C@H](CC[C@@H]3[C@@H]2CC[C@]2(C)[C@@H](C(=O)Cn4cccn4)CC[C@@H]32)C1` [SA-23] was tested, and the IC50 [1] was 100 to 500 nM and the Emax at 10 µM [2] was over 500%.

`C[C@@]1(O)CC[C@@H]2[C@H]3CC[C@]4(C)[C@@H](C(=O)Cn5cccn5)CC[C@H]4[C@@H]3C[C@@H](F)[C@@H]2C1` [SA-25] gave an IC50 [1] of at least 500 nM.

`C[C@]12CC[C@H]3[C@@H](CC[C@@H]4C[C@@](O)(C(F)F)CC[C@@H]43)[C@@H]1CC[C@@H]2C(=O)Cn1cccn1` [SA-27] showed an IC50 [1] of 100 to 500 nM and an Emax at 10 µM [2] of 100 to 500%.

In the case of `C[C@]12CC[C@H]3[C@@H](CC[C@@H]4C[C@@](O)(C(F)F)CC[C@@H]43)[C@@H]1CC[C@@H]2C(=O)Cn1cc(C#N)cn1` [SA-28], the Emax at 10 µM [2] is reported as over 500%.

For `C[C@]12CC[C@H]3[C@@H](CC[C@@H]4C[C@@](O)(C(F)F)CC[C@@H]43)[C@@H]1CC[C@@H]2C(=O)Cn1cc(S(C)(=O)=O)cn1` [SA-29], the IC50 [1] was at least 500 nM.

Work on `CC[C@@]1(O)CC[C@H]2[C@H](CC[C@@H]3[C@@H]2CC[C@]2(C)[C@@H](C(=O)Cn4cc(C#N)cn4)CC[C@@H]32)C1` [SA-30] yielded an Emax at 10 µM [2] of 100 to 500%.

For `C[C@]12CC[C@H]3[C@@H](CC[C@@H]4C[C@@](O)(CF)CC[C@@H]43)[C@@H]1CC[C@@H]2C(=O)Cn1cccn1` [SA-31], the IC50 [1] was 100 to 500 nM and the Emax at 10 µM [2] was 100 to 500%.

With `C[C@]12CC[C@H]3[C@@H](CC[C@@H]4C[C@@](O)(CF)CC[C@@H]43)[C@@H]1CC[C@@H]2C(=O)Cn1cc(S(C)(=O)=O)cn1` [SA-33] the IC50 [1] was at least 500 nM.

`CC[C@@]1(O)CC[C@H]2[C@H](CC[C@@H]3[C@@H]2CC[C@]2(C)[C@@H](C(=O)Cn4cccn4)CC[C@@H]32)C1` [SA-35] was tested, and the IC50 [1] was 100 to 500 nM and the Emax at 10 µM [2] was 100 to 500%.

With `C[C@@]1(O)CC[C@H]2[C@@H](CC[C@@H]3[C@@H]2CC[C@]2(C)[C@@H](C(=O)Cn4cc(S(C)(=O)=O)cn4)CC[C@@H]32)C1` [SB-3] the IC50 [1] was at least 500 nM.

With `COC[C@@]1(O)CC[C@H]2[C@@H](CC[C@@H]3[C@@H]2CC[C@]2(C)[C@@H](C(=O)Cn4cccn4)CC[C@@H]32)C1` [SB-4] the IC50 [1] was 100 to 500 nM and the Emax at 10 µM [2] was over 500%.

Molecule `COC[C@@]1(O)CC[C@H]2[C@@H](CC[C@@H]3[C@@H]2CC[C@]2(C)[C@@H](C(=O)Cn4cc(S(C)(=O)=O)cn4)CC[C@@H]32)C1` [SB-7] has an IC50 [1] of at least 500 nM.

`CCOC[C@@]1(O)CC[C@H]2[C@@H](CC[C@@H]3[C@@H]2CC[C@]2(C)[C@@H](C(=O)Cn4cccn4)CC[C@@H]32)C1` [SB-8] gave an IC50 [1] of at least 500 nM.

Molecule `CCOC[C@@]1(O)CC[C@H]2[C@@H](CC[C@@H]3[C@@H]2CC[C@]2(C)[C@@H](C(=O)Cn4cc(C#N)cn4)CC[C@@H]32)C1` [SB-9] has an Emax at 10 µM [2] of 100 to 500%.

`Cc1cnn(CC(=O)[C@H]2CC[C@H]3[C@@H]4C[C@@H](F)[C@H]5C[C@](C)(O)CC[C@@H]5[C@H]4CC[C@]23C)c1` [SB-12] showed an Emax at 10 µM [2] of 100 to 500%.

`C[C@@]1(O)CC[C@@H]2[C@H]3CC[C@]4(C)[C@@H](C(=O)Cn5ccc(C#N)n5)CC[C@H]4[C@@H]3C[C@@H](F)[C@H]2C1` [SB-13] gave an Emax at 10 µM [2] of 100 to 500%.

For `CSc1cnn(CC(=O)[C@H]2CC[C@H]3[C@@H]4C[C@@H](F)[C@H]5C[C@](C)(O)CC[C@@H]5[C@H]4CC[C@]23C)c1` [SB-14], the Emax at 10 µM [2] was 100 to 500%.

In the case of `C[C@@H]1C[C@H]2[C@@H](CC[C@@H]3[C@@H]2CC[C@]2(C)[C@@H](C(=O)Cn4cccn4)CC[C@@H]32)C[C@]1(C)O` [SB-18], the IC50 [1] is reported as 100 to 500 nM and the Emax at 10 µM [2] is reported as 100 to 500%.

`CO[C@H]1C[C@H]2[C@@H](CC[C@@H]3[C@@H]2CC[C@]2(C)[C@@H](C(=O)Cn4cccn4)CC[C@@H]32)C[C@]1(C)O` [SB-19] showed an IC50 [1] of 100 to 500 nM and an Emax at 10 µM [2] of over 500%.

`CC[C@@]1(O)CC[C@H]2[C@@H](CC[C@@H]3[C@@H]2CC[C@]2(C)[C@@H](C(=O)Cn4cccn4)CC[C@@H]32)C1` [SB-20] was tested, and the IC50 [1] was at least 500 nM.

Molecule `CC[C@@]1(O)CC[C@H]2[C@@H](CC[C@@H]3[C@@H]2CC[C@]2(C)[C@@H](C(=O)Cn4cc(C#N)cn4)CC[C@@H]32)C1` [SB-21] has an Emax at 10 µM [2] of 100 to 500%.

`C[C@]12CC[C@H]3[C@@H](CC[C@H]4C[C@@](O)(CF)CC[C@@H]43)[C@@H]1CC[C@@H]2C(=O)Cn1cc(C#N)cn1` [SB-22] gave an IC50 [1] of 100 to 500 nM and an Emax at 10 µM [2] of over 500%.

In the case of `C[C@]12CC[C@H]3[C@@H](CC[C@H]4C[C@@](O)(CF)CC[C@@H]43)[C@@H]1CC[C@@H]2C(=O)Cn1cccn1` [SB-23], the IC50 [1] is reported as 100 to 500 nM and the Emax at 10 µM [2] is reported as 100 to 500%.
